Test results taken from PubChem BioAssay (NCI).
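Compound exposure: 48 hours, 5 concentrations, 96-well plates. GI50 marks 50% less growth. TGI denotes the concentration required for complete inhibition of growth.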

Experiments:
Assay in all cases: inhibition of tumour cell growth, NCI panel, 48 h
NCI-H226 lung = tested on: NCI-H226 lung
NCI-H23 lung = tested on: NCI-H23 lung
NCI-H460 lung = tested on: NCI-H460 lung
NCI-H522 lung = tested on: NCI-H522 lung
NCI/ADR-RES ovarian = tested on: NCI/ADR-RES ovarian
OVCAR-3 ovarian = tested on: OVCAR-3 ovarian
OVCAR-4 ovarian = tested on: OVCAR-4 ovarian
OVCAR-5 ovarian = tested on: OVCAR-5 ovarian
OVCAR-8 ovarian = tested on: OVCAR-8 ovarian
PC-3 prostate = tested on: PC-3 prostate
RPMI-8226 leukemia = tested on: RPMI-8226 leukemia
RXF 393 renal = tested on: RXF 393 renal
SF-268 CNS = tested on: SF-268 CNS
SF-295 CNS = tested on: SF-295 CNS
SF-539 CNS = tested on: SF-539 CNS
SK-MEL-2 melanoma = tested on: SK-MEL-2 melanoma
SK-MEL-28 melanoma = tested on: SK-MEL-28 melanoma
SK-MEL-5 melanoma = tested on: SK-MEL-5 melanoma
SK-OV-3 ovarian = tested on: SK-OV-3 ovarian
SN12C renal = tested on: SN12C renal
SNB-19 CNS = tested on: SNB-19 CNS
SNB-75 CNS = tested on: SNB-75 CNS
SR leukemia = tested on: SR leukemia
SW-620 colon = tested on: SW-620 colon
T-47D breast = tested on: T-47D breast
TK-10 renal = tested on: TK-10 renal
U251 CNS = tested on: U251 CNS
UACC-257 melanoma = tested on: UACC-257 melanoma
UACC-62 melanoma = tested on: UACC-62 melanoma
UO-31 renal = tested on: UO-31 renal

## O=C(Nc1ccc(OCc2ccc(Cl)cc2)cc1)Nc1ccc(Cl)c(C(F)(F)F)c1
NCI-H226 lung
  TGI: 5.27 µM
NCI-H23 lung
  GI50: 1.39 µM
  TGI: 3.83 µM
NCI-H460 lung
  GI50: 1.47 µM
  TGI: 3.99 µM
NCI-H522 lung
  GI50: 1.82 µM
  TGI: 5.28 µM
NCI/ADR-RES ovarian
  GI50: 1.74 µM
  TGI: 5.41 µM
OVCAR-3 ovarian
  GI50: 1.98 µM
  TGI: 8.35 µM
OVCAR-4 ovarian
  GI50: 2.37 µM
  TGI: 9.36 µM
OVCAR-5 ovarian
  GI50: 3.01 µM
  TGI: 17.4 µM
OVCAR-8 ovarian
  GI50: 2.32 µM
  TGI: 7.19 µM
PC-3 prostate
  GI50: 1.19 µM
  TGI: 13.8 µM
RPMI-8226 leukemia
  GI50: 1.55 µM
  TGI: 13.5 µM
RXF 393 renal
  GI50: 2.89 µM
  TGI: 6.17 µM
SF-268 CNS
  GI50: 3.18 µM
  TGI: 13.2 µM
SF-295 CNS
  GI50: 1.42 µM
  TGI: 3.7 µM
SF-539 CNS
  GI50: 2.4 µM
  TGI: 5.98 µM
SK-MEL-2 melanoma
  GI50: 2 µM
  TGI: 4.6 µM
SK-MEL-28 melanoma
  GI50: 2.84 µM
  TGI: 10.4 µM
SK-MEL-5 melanoma
  GI50: 1.75 µM
  TGI: 3.35 µM
SK-OV-3 ovarian
  GI50: 3.42 µM
  TGI: 11.6 µM
SN12C renal
  GI50: 2.03 µM
  TGI: 6.46 µM
SNB-19 CNS
  GI50: 2.45 µM
  TGI: 7.99 µM
SNB-75 CNS
  GI50: 1.42 µM
  TGI: 5.45 µM
SR leukemia
  GI50: 2.95 µM
  TGI: 15.7 µM
SW-620 colon
  GI50: 2.56 µM
  TGI: 10.3 µM
T-47D breast
  GI50: 2.06 µM
  TGI: 10.1 µM
TK-10 renal
  GI50: 2.74 µM
  TGI: 9.69 µM
U251 CNS
  GI50: 1.92 µM
  TGI: 4.55 µM
UACC-257 melanoma
  GI50: 2.33 µM
  TGI: 5.96 µM
UACC-62 melanoma
  GI50: 2.4 µM
  TGI: 10.6 µM
UO-31 renal
  GI50: 1.82 µM
  TGI: 6.73 µM
